The test system of one data set is Human NP cells. Briefly: NP cell metabolic activity (AlamarBlue reduction).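 As to AB reduction per cell (%): percent AlamarBlue reduction per manufacturer divided by estimated total cells per well from LIVE/DEAD counts.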 In kind it is cell-based. Here is the method:
Nucleus pulposus (NP) cells are native matrix-producing cells at the core of intervertebral discs. To repurpose axonal dieback compounds to denervate aberrant nerve fibers in discs related to chronic LBP, the cytocompatibility of these compounds with NP cells must be evaluated. Human NP cells (Sciencell, 4800) from donor 1 (Lot #5954) and donor 2 (Lot# 21579) were cultured according to previously established protocol in our lab adapted from manufacturer’s instructions. Briefly, passage three cells from both donors were expanded in Poly-L-lysine (PLL) (Sciencell, 413) coated T75 flasks. Cells were then lifted and reseeded at 5,000 cells/cm^2 onto two PLL-coated 48-well plates (Greiner Bio-One, 677180) and allowed to attach overnight before treating with Pyr or Vcr. One plate was used for LIVE/DEAD staining and the other plate was used for AlamarBlue assay as described below. Complete NP cell media (Sciencell, 4801) containing basal media supplemented with 1% penicillin-streptomycin, 1% growth supplement and 2% FBS were used for maintaining cells in culture. To mimic the hypoxic disc environment, NP cells were cultured in a hypoxia chamber (Stem Cell Technologies, 27310) with 5% CO2, 3.5% O2, 91.5% N2 (Airgas) during the entire culture and treatment incubation period.
Pyr stock solution was diluted in complete NP media to achieve final concentrations of 500 μM, 1 mM and 2 mM Pyr. 16.9 μg/mL and 169 μg/mL Vcr stock solutions were prepared in 1X PBS then diluted in complete NP media to achieve final concentrations of 10, 25, 50, 100 nM and 200, 500 nM, respectively. Cells were incubated with 250 μL of final treatment solutions in duplicate wells per donor for three days. Cells in negative control group were incubated with 250 μL of complete NP media with 0.55% v/v 1X PBS as solvent control. On day 3 post-treatment, brightfield images at 4X magnification were taken using a BioTek Cytation1 Plate Imager (Agilent) to verify cell proliferation and observe cell morphology. Three experimental replicates were performed for each cell donor.
On day 3 of incubation with drugs, 25 μL (10% v/v of media volume) of AlamarBlue HS cell viability reagent (Thermo Fisher Scientific, A50100) were added into each well. Cells were incubated with the AlamarBlue reagent for 2 hours at 37°C under hypoxia then 60 μL aliquots of cell media were removed in duplicates into a 96-well plate. The absorbance at 570 and 600 nm were read using a microplate reader (Agilent) and calculations for AlamarBlue reduction were calculated according to the manufacturer’s protocol. To account for different cell confluency between donors and groups, AlamarBlue reduction was normalized to estimated total number of cells per well obtained from LIVE/DEAD staining. Cellular metabolic activity in treated groups was reported as a ratio of normalized AlamarBlue reduction to PBS control group.
In general terms: The colour change of resazurin is a common sign of viable cells or microbes.

For the next data set, the system named is rat DRG explants. Briefly: DRG cytotoxicity assessment using LDH assay. Format: cell-based. The settings on record: for Cytotoxicity (%): female rat DRG explant, single well. As to the method:
(§1) 500 nM Imy and 10 nM Vcr were excluded from female rat DRG experiments while 500 nM Vcr and 1 mM Pyr were excluded from male rat DRG experiments due to insufficient DRG replicates with axon outgrowth. DRG media was removed from wells and transferred into a 96-well plate for pre-treat LDH cytotoxicity assay (see Methods below). 300 μL of media treatment solutions or solvent control solutions were added to wells. DRGs were incubated with treatment solutions for three days, and brightfield images at 4X magnification were taken using BioTek Cytation1 Plate Imager (Agilent) before treatment (day -1) and on days 1, 2 and 3 after treatment. DRGs from adult male and female rats were tested to determine if sex can affect axonal dieback. In total, 12 to 15 DRG replicates per group by sex harvested from n = 3 male and n = 3 female rats were tested.
(§2) Lactate dehydrogenase (LDH) is a cytosolic enzyme present in all cells. Dissociated rat DRG neurons release LDH during tunicamycin-induced apoptosis. […] An ideal axonal dieback compound should cause axonal degeneration without neurotoxicity. was assessed on day 3 post-treat and normalized to pre-treat levels to account for variability in DRG size and growth and calculated as a percentage of cytotoxicity to lysed DRGs (positive control). 50 μL of pre-treatment and post-treatment media were aliquoted in duplicates into a 96-well plate. LDH activity in the media post-treat was assessed using the CyQUANT^TM LDH Cytotoxicity Assay Kit (Thermo Fisher Scientific, C20301) according to the manufacturer’s instructions. Briefly, 50 μL of Substrate Mix was added to each well and then incubated at room temperature for 30 minutes protected from light. 50 μL of Stop solution was added to each well and the absorbance at 490 nm and 680 nm was measured using a microplate reader (Agilent). LDH activity of each DRG was calculated as the difference between absorbance at 490 nm after subtracting the background absorbance at 680 nm. As a positive control, 13 female rat DRGs and 15 male rat DRGs were treated for three days with Lysis buffer solution, provided in the kit, diluted 1:5.45 in DRG media. The percentage of cytotoxicity was calculated following Eq 2. Pre-treat levels of LDH activity were subtracted from post-treat LDH activity in each DRG to remove baseline LDH activity then percentage of cytotoxicity compared to positive control lysed DRG LDH activity was calculated. Sex is a biological factor that can influence neurotoxicity. Thus, percentage of cytotoxicity of total 11 to 14 DRG replicates per group by sex from n = 3 male and n = 3 female rats were tested.
(§3) Cytotoxicity(%)=(PosttreatLDHactivity)−(PretreatLDHactivity)/(MaximumLDHactivityfromlysedDRGs)−(PretreatLDHactivity)×100% (2)

Data set [1] is described as follows: DRG cytotoxicity assessment using LDH assay. In kind it is cell-based, rat. The note with it: female, rat, rat dorsal root ganglion (DRG) explants, 100 nM, female rat DRG explant, single well. As to the method:
as §1, §2, §3

Consider one compound from article PMC11065314, “Identification of compounds that cause axonal dieback without cytotoxicity in dorsal root ganglia explants and intervertebral disc cells with potential to treat pain via denervation” (PLOS ONE, 2024).

SMILES strings stand for the structures. Values joined by “and” are separate entries in the source; they are usually repeats but may differ in a detail not shown here. Identical values can stand only once. Counter-ions that a name gives are not always drawn.

With `CC[C@]1(O)C[C@H]2CN(CCc3c([nH]c4ccccc34)[C@@](C(=O)OC)(c3cc4c(cc3OC)N(C=O)[C@H]3[C@@](O)(C(=O)OC)[C@H](OC(C)=O)[C@]5(CC)C=CCN6CC[C@]43[C@@H]65)C2)C1` [Vcr, vincristine sulfate], the “AB reduction per cell (%)” value with Human NP cells (10 nM, donor 1, day 3, single wells (Exp, Rep)) was 0.002283% and 0.00154% and 0.001747% and 0.002442% and 0.00231% and 0.002706%; in the data set with Human NP cells (10 nM, donor 2, day 3, single wells (Exp, Rep)), 0.001215% and 0.001339% and 0.005412% and 0.01334% and 0.005031% and 0.005908%; in the data set with Human NP cells (25 nM, donor 1, day 3, single wells (Exp, Rep)), 0.001389% and 0.003739% and 0.002704% and 0.002205% and 0.001365% and 0.001406%; in the data set on Human NP cells (25 nM, donor 2, day 3, single wells (Exp, Rep)) it was 0.003051% and 0.007629% and 0.005557% and 0.004909% and 0.001181% and 0.0009857%; in the data set with Human NP cells (50 nM, donor 1, day 3, single wells (Exp, Rep)), 0.001753% and 0.001156% and 0.00138% and 0.00139% and 0.003609% and 0.003175%; in the data set with Human NP cells (50 nM, donor 2, day 3, single wells (Exp, Rep)) it was 0.0005415% and 0.0008201% and 0.002435% and 0.002975% and 0.005792% and 0.00531%. Moreover, the “AB reduction per cell (%)” value is 0.001416% and 0.0009649% and 0.001537% and 0.002073% and 0.00337% and 0.003265% in the data set on Human NP cells (100 nM, donor 1, day 3, single wells (Exp, Rep)); 0.0006846% and 0.0007833% and 0.00204% and 0.002057% and 0.009145% and 0.008838% with Human NP cells (100 nM, donor 2, day 3, single wells (Exp, Rep)); 0.001363% and 0.0008921% and 0.002395% and 0.003983% and 0.00365% and 0.004535% in the data set with Human NP cells (200 nM, donor 1, day 3, single wells (Exp, Rep)); 0.0005853% and 0.0004556% and 0.002302% and 0.00249% and 0.005313% and 0.004842% in the data set with Human NP cells (200 nM, donor 2, day 3, single wells (Exp, Rep)); 0.001679% and 0.00128% and 0.002381% and 0.004274% and 0.005712% and 0.005618% in the data set on Human NP cells (500 nM, donor 1, day 3, single wells (Exp, Rep)); 0.0008561% and 0.0008471% and 0.004331% and 0.0268% and 0.00643% and 0.009026% with Human NP cells (500 nM, donor 2, day 3, single wells (Exp, Rep)). The “Cellular metabolic activity compared to PBS control” value with Human NP cells (10 to 500 nM, donor 1 and 2, day 3) is recorded as “No significant differences were detected”. Moreover, the “Cytotoxicity (%)” value was 6.189% and 9.7112% and 4.38% in the data set with rat DRG explants (1 nM, 0.001 µM); 11.901% with rat DRG explants (100 nM, 0.1 µM); 7.521% and 12.2818% and 15.3285% in the data set on rat DRG explants (500 nM, 0.5 µM). Moreover, the “Percentage of DRG cytotoxicity, Mean (SD)” value in the data set with rat DRG explants (10 nM, day 3, male rat DRGs only, relative to lysed DRGs) was 7.02 (4.36) %. Moreover, the “Percentage of cytotoxicity less than lysed DRGs” value in the data set on rat DRG explants (100 nM, day 3) was 89.8%. Besides, the “Overall cytotoxicity lower compared to lysed DRGs” value in the data set on rat DRG explants (all concentrations tested, day 3) was “at least 88%”. Besides, the cytotoxicity at 3 days, 0.1 µM in data set [1] worked out at 15.5%.
